This is an account of results in patent publication US11311512B2, “Lymph directing prodrugs” (priority 2014, dated 2022).

What is called Tmax is the time at which the peak concentration occurs. What is called Cmax is the peak of the concentration-time curve.

The conditions of series [1]: for Transport of total TST derivatives in lymph (% of dose): anaesthetised, mesenteric lymph-duct cannulated female SD rats, intraduodenal infusion 0-2 h, cumulative over 8 h; for Fold increase (compared with control group dosed with TU): lymphatic transport of total TST derivatives, female SD rats, intraduodenal infusion. On the procedure:
Lipid formulations containing the compound of interest were then administered to the animals, the lymph collected and drug concentrations in the lymph subsequently quantified.
Lipid-based formulations of the compounds of the invention or control compounds were prepared as previously described (Trevaskis, N. L. et al., Pharmaceutical Research, 2005, 22(11), 1863-1870). Briefly, approximately 2 mg of the compound (1 mg in the case of Compound 35 and Compound 1), 40 mg oleic acid and 25 mg Tween 80 were mixed in a glass vial until equilibrated (gentle heat (below 50° C.) may be applied for a short period).
[…] This was to eliminate the potential for the relatively high and variable levels of endogenous testosterone in male rats interfering with the quantification of exogenously dosed testosterone. Rats (240-320 g) were maintained on a standard diet and fasted overnight with free access to water prior to experiments. Anaesthetised rats were placed on a heated pad at 37° C. and cannulas were inserted into the duodenum (for formulation administration and rehydration), mesenteric lymph duct (for lymph collection) and carotid artery (for blood collection) as previously described (Edwards et al. Advanced Drug Delivery Reviews 2001, 50(1), 45-60). Post-surgery, rats were re-hydrated for 0.5 h via intraduodenal infusion of normal saline at 2.8 mL/h. The lipid formulations were infused into the duodenum at 2.8 mL/h for 2 h, after which the infusion was changed to 2.8 mL/h normal saline for the remainder of the experiment. Lymph was continuously collected for 6 to 8 h into pre-weighed Eppendorf tubes containing 10 μL of 1,000 IU/mL heparin. The collection tubes were changed hourly and lymph flow was measured gravimetrically. Aliquots of hourly lymph samples were stored at −80° C. prior to assay.
Drug concentration in lymph is expressed as total drug and includes free drug and drug associated with different glycerides. This is assayed by hydrolysis of lymph (to liberate drug from any re-esterified glycerides) prior to assessment of free drug.
FIG. 1 illustrates the cumulative lymphatic transport of total testosterone related derivatives (% of administered dose) versus time in anaesthetised mesenteric lymph duct cannulated female SD rats following intraduodenal infusion of formulations from 0 to 2 h. Each Formulation contained 2 mg of the exemplified compound or the control, testosterone undecanoate (TU), dispersed in 40 mg oleic acid, 25 mg Tween 80 and 5.6 ml PBS.

Series [2] is described as follows: Pharmacokinetic study in rats, testosterone plasma concentrations after oral gavage. The following applies: for AUC0-24 h fold increase compared with TU group / Tmax / AUC0-24 h / Cmax: testosterone in plasma, oral gavage; for AUC0-24 h fold increase compared with TU group: dose-normalized; for Tmax / AUC0-24 h / Cmax: conscious carotid artery cannulated SD female rats; for AUC0-24 h / Cmax: normalized to 2 mg/kg equivalent testosterone dose. On the procedure: In order to assess the oral bioavailability of the compounds of the invention, pharmacokinetic studies were conducted in rats and dogs. […] The rats were then allowed to regain consciousness and fasted overnight prior to the commencement of experiments with free access to water. […] The oral formulation of Compound 2 contained 3 mg of the compound, 20 mg oleic acid and 12.5 mg Tween 80 dispersed in 1 mL PBS. Blood samples were collected from the carotid artery cannula from 5 min prior to administration up to 24 h post-dosing and centrifuged at 5000 rpm for 5 min to separate plasma. […] Plasma samples were stored at −80° C. prior to assay by HPLC-MS-MS. In this case samples were assayed for free drug (i.e. non-glyceride associated drug) and were not hydrolysed prior to assay (as was the case with the lymph samples).
FIG. 12 illustrates dose-normalized testosterone plasma concentrations following oral gavage of formulations to conscious, carotid artery cannulated female SD rats. Formulations contained 1 mg of TU, or 2 mg of compounds of the invention containing testosterone dispersed in 40 mg oleic acid, 25 mg Tween 80 and 2 ml PBS. Doses are normalized to a 2 mg/kg equivalent dose of testosterone. Data are shown as mean±SEM for all groups (n=4 or 3 for each group). The embedded figure is the plot of the dose-normalized plasma AUC0-24h (nmol×h/L) of testosterone in the form of a bar graph.

Series [3] has as its system porcine pancreatic lipase. The series is described as follows: In vitro hydrolysis by porcine pancreatic lipase. It is filed as in vitro ADME. The following applies: 37° C., simulated intestinal micellar solution pH 6.5, up to 180 min. On the procedure:
To provide for higher throughput of experiments, unless otherwise stated, in vitro hydrolysis of TST related compounds was performed via incubation with porcine pancreatic lipase. This provides a more reproducible source of pancreatic enzymes, facilitates enhanced experimental throughput and is also a greater challenge than collected rat enzymes (since enzyme activity in rat intestinal fluid is low). Briefly, pancreatic lipase solution was prepared prior to the hydrolysis experiment by dispersion of 1 g porcine pancreatin in 5 ml of lipolysis buffer and 16.9 μl of 5M NaOH. The suspension was mixed well and centrifuged at 3500 rpm for 15 minutes at 5° C. to provide a supernatant. An amount of 1000 ml of lipolysis buffer was prepared with 0.474 g of tris-maleate (2 mM), 0.206 g of CaCl2.H2O (1.4 mM) and 8.775 g of NaCl (150 mM) adjusted with NaOH to pH 6.5. To assess the potential for prodrug hydrolysis in the intestine, 20 μl of prodrug solution (1 mg/ml dissolved in acetonitrile), 900 μl of simulated intestinal micellar solution [prepared with 0.783 g of NaTDC (3 mM) and 0.291 g of phosphatidyl choline (0.75 mM) in 500 ml lipolysis buffer] and 100 μl of enzyme solution were incubated at 37° C. 20 μl samples of the incubation solution were taken at 0, 5, 10, 15, 30, 60, 90, 120 and 180 minutes post incubation and added to 180 μl of ACN to stop lipolysis. The mixture was vortexed and centrifuged at 5000 rpm for 5 minutes to precipitate proteins prior to analysis. The supernatant was analysed by HPLC-MS for residual compound concentrations, and the potential products of compound hydrolysis were analysed.
On incubation with digestive enzymes the monoglycerides forms of the prodrugs are formed very rapidly. The stability in simulated intestinal conditions is therefore better assessed by the stability of the monoglycerides form that is generated by the initial digestion process. The monoglycerides form must remain intact to be absorbed and re-esterified in the enterocyte prior to entry into the lymphatics. […] This is consistent with the increase in lymphatic transport of Compound 18 when compared to Compound 10, and the high extent of lymphatic transport of Compound 16 in FIG. 4.

`CCCCCCCCCCCCCCCC(=O)OCC(COC(=O)CCCCCCCCCCCCCCC)OC(=O)CCCCC(=O)O[C@H]1CC[C@H]2[C@@H]3CCC4=CC(=O)CC[C@]4(C)[C@H]3CC[C@]12C` [Compound 11]: in series [1], the “Transport of total TST derivatives in lymph (% of dose)” value is given as 17.0 ± 1.6 % of dose and the “Fold increase (compared with control group dosed with TU)” value stood at 9.0 fold. In addition, in series [2] (oral administration, SD female rats), the “systemic exposure of parent testosterone (dose-normalised plasma AUC0-24h), fold greater than after Compound 41 or Compound 10” value came out at 10 fold. The “AUC0-24 h fold increase compared with TU group” value (“AUC0-24 h fold increase” for short) in series [2] (SD female rats) came to 12.4 fold. Besides, in series [2], the Tmax amounted to 1.3 ± 0.1 h, the AUC0-24 h is 0.0842 ± 0.0093 µM·h and the Cmax was found to be 69.9 ± 8.2 nM. Also, the “stability of the monoglyceride form during in vitro incubation with porcine pancreatic lipase” value (from here on “stability”) in series [3] is reported as “not highly stable”.
Consider `CCCCCCCCCCCCCCCC(=O)OCC(COC(=O)CCCCCCCCCCCCCCC)OC(=O)C(C)CCCCCCCC(=O)O[C@H]1CC[C@H]2[C@@H]3CCC4=CC(=O)CC[C@]4(C)[C@H]3CC[C@]12C` (stereo partly drawn) [Compound 16], for which, in series [1], the “Transport of total TST derivatives in lymph (% of dose)” value was 23.2 ± 2.3 % of dose and the “Fold increase (compared with control group dosed with TU)” value was 12.3 fold. In addition, the “AUC0-24 h fold increase” value in series [2] (SD female rats) is recorded as 15.8 fold. Moreover, in series [2], the Tmax stood at 1.3 ± 0.1 h, the AUC0-24 h was determined as 0.1076 ± 0.014 µM·h and the Cmax was determined as 77 ± 14.2 nM. Further, the “stability” value in series [3] is reported as “significantly stabilised the monoglyceride intermediates”.
For `CCCCCCCCCCCCCCCC(=O)OCC(COC(=O)CCCCCCCCCCCCCCC)OC(=O)CCCCC(=O)OCO[C@H]1CC[C@H]2[C@@H]3CCC4=CC(=O)CC[C@]4(C)[C@H]3CC[C@]12C` [Compound 21, 1,3-Bis(palmitoyloxy)propan-2-yl (((8R,9S,10R,13S,14S,17S)-10,13-dimethyl-3-oxo-2,3,6,7-8,9,10,11,12,13,14-15,16,17-tetradecahydro-1H-cyclopenta[a]phenanthren-17-yl)oxy)methyl adipate], in series [2] (SD female rats), the “AUC0-24 h fold increase” value amounted to 44.0 fold. Further, in series [2], the Tmax worked out at 0.7 ± 0.2 h, the AUC0-24 h came out at 0.2994 ± 0.1001 µM·h and the Cmax came out at 232 ± 63.2 nM. Besides, the “stability” value in series [3] is “lower than that of Compound 11”.
On to `CCCCCCCCCCCCCCCC(=O)OCC(COC(=O)CCCCCCCCCCCCCCC)OC(=O)CC(C)CC(=O)Oc1cc(C)cc(C)c1C(C)(C)CC(=O)O[C@H]1CC[C@H]2[C@@H]3CCC4=CC(=O)CC[C@]4(C)[C@H]3CC[C@]12C` (stereo partly drawn) [Compound 25], for which the “AUC0-24 h fold increase” value in series [2] (SD female rats) amounted to 58.5 fold. Further, in series [2], the Tmax is on record as 0.9 ± 0.1 h, the AUC0-24 h was found to be 0.3992 ± 0.0432 µM·h and the Cmax worked out at 419 ± 63.3 nM. The “stability” value in series [3] is recorded as “remarkably stable”.
For `CCCCCCCCCCCCCCCC(=O)OCC(COC(=O)CCCCCCCCCCCCCCC)OC(=O)CC(C)CCCCCCC(=O)Oc1cc(C)cc(C)c1C(C)(C)CC(=O)O[C@H]1CC[C@H]2[C@@H]3CCC4=CC(=O)CC[C@]4(C)[C@H]3CC[C@]12C` (stereo partly drawn) [Compound 27], in series [2] (SD female rats), the “AUC0-24 h fold increase” value is listed as 106.4 fold. In series [2], the Tmax was found to be 1.5 ± 0.5 h, the AUC0-24 h turned out to be 0.7238 ± 0.0905 µM·h and the Cmax stood at 428 ± 97.8 nM. Also, the “stability” value in series [3] is “remarkably stable”.
